Measurements reported in US20230072421A1, “TARGETED RADIOPHARMACEUTICALS FOR THE DIAGNOSIS AND TREATMENT OF PROSTATE CANCER” (Bayer AS, priority 2019, published 2023).

Target: T1, PSMA-expressing LNCaP cells (Homo sapiens, UniProt Q04609)
T1 construct: PSMA-expressing LNCaP cells; endogenous in cells; host or cells: LNCaP
Test: Binding competition assay against 3H-PSMA-617 on LNCaP cells
Procedure: Cells were incubated at 37° C. and 5% CO2 over night. […] After addition of the compounds in growth media the cells were swiveled slightly on a shaker mixing for 10 min followed by incubation for 2 h at 37° C., 5% C02. Following the incubation time the supernatant was removed by pipetting and cells were washed twice with ice cold PBS (total of 800 μl). Cells were lysed in 500 μl of 0.3M NaOH (PanReac AppliChem ITW Reagents) by vigorous shaking for 15 min and the cell lysated pipetted into scintillator tubes (S207-[…]® Scintillation Vials 6.5 ml #S207, Simport). In the following the wells were washed with 500 μl PBS and the washing PBS added to the corresponding samples in the sincitallator tubes. To each sample in the scintillator tubes 4 mL of Ultima Gold liquid scintillation cocktail (Sigma-Aldrich #L8286) was added and the samples let stand for at least 30 min. Thereafter radioactivity was counted in a Tri-Carb Liquid Scinzillation Analyzer (Perkin Elmer).

[1] = LNCaP cells, 10 nM 3H-PSMA-617, competing non-radiolabeled compound 10 nM, 2 h at 37° C., triplicates
[2] = LNCaP cells, 10 nM 3H-PSMA-617, competing non-radiolabeled compound 100 nM, 2 h at 37° C., triplicates

T1 sequence (Q04609 whole entry): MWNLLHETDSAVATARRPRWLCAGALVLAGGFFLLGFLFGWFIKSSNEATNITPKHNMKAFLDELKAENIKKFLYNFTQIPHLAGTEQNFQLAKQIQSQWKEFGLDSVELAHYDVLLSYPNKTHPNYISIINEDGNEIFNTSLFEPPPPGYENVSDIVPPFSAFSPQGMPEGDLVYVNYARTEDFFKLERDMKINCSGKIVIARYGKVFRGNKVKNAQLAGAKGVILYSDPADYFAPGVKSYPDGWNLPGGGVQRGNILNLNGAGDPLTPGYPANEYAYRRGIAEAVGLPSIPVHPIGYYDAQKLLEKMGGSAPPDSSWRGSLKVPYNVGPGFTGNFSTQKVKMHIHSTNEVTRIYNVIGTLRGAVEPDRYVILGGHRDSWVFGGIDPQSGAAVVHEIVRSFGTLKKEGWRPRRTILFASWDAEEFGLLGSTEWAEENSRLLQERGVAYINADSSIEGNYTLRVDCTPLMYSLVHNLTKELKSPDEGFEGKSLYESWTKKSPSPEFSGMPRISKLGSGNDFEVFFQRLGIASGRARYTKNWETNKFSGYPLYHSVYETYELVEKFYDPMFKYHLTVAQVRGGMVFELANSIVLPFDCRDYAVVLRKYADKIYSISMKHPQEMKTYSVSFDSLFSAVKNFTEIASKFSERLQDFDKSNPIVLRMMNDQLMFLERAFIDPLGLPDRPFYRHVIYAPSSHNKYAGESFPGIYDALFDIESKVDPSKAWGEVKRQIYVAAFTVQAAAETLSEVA

`CC(=O)NCCCC[C@H](NC(=O)[C@H]1CC[C@H](CN)CC1)C(=O)NCCCC[C@H](NC(=O)N[C@@H](CCC(=O)O)C(=O)O)C(=O)O` [Example 11-A, N^6—{N^6-acetyl-N^2-[(1r,4S)-4-(aminomethyl)cyclohexane-1-carbonyl]-L-lysyl}-N^2-{[(1S)-1,3-dicarboxypropyl]carbamoyl}-L-lysine] showed a remaining activity at 0.01 µM [1] of 117% and a remaining activity at 0.1 µM [2] of 146%.
`NC[C@H]1CC[C@H](C(=O)N[C@@H](Cc2ccc(-c3ccccc3)cc2)C(=O)NCCCC[C@H](NC(=O)N[C@@H](CCC(=O)O)C(=O)O)C(=O)O)CC1` [Example 11a-A, (3S,10S,14S)-1-[(1r,4S)-4-(aminomethyl)cyclohexyl]-3-[([1,1′-biphenyl]-4-yl)methyl]-1,4,12-trioxo-2,5,11,13-tetraazahexadecane-10,14,16-tricarboxylic acid] gave a remaining activity at 0.01 µM [1] of 110% and a remaining activity at 0.1 µM [2] of 103%.
With `Cc1ccccc1C[C@H](NC(=O)[C@H]1CC[C@H](CN)CC1)C(=O)NCCCC[C@H](NC(=O)N[C@@H](CCC(=O)O)C(=O)O)C(=O)O` [Example 12-A, N^6—{N-[(1r,4S)-4-(aminomethyl)cyclohexane-1-carbonyl]-2-methyl-L-phenylalanyl}-N^2-{[(1S)-1,3-dicarboxypropyl]carbamoyl}-L-lysine] the remaining activity at 0.01 µM [1] was 158% and the remaining activity at 0.1 µM [2] was 128%.
`Cc1ccc(C[C@H](NC(=O)[C@H]2CC[C@H](CN)CC2)C(=O)NCCCC[C@H](NC(=O)N[C@@H](CCC(=O)O)C(=O)O)C(=O)O)cc1` [Example 13-A, N^6—{N-[(1r,4S)-4-(aminomethyl)cyclohexane-1-carbonyl]-4-methyl-L-phenylalanyl}-N^2-{[(1S)-1,3-dicarboxypropyl]carbamoyl}-L-lysine] gave a remaining activity at 0.01 µM [1] of 108% and a remaining activity at 0.1 µM [2] of 124%.
In the case of `NC[C@H]1CC[C@H](C(=O)N[C@@H](Cc2ccc3ccccc3c2Br)C(=O)NCCCC[C@H](NC(=O)N[C@@H](CCC(=O)O)C(=O)O)C(=O)O)CC1` [Example 14-A, (3S,10S,14S)-1-[(1r,4S)-4-(aminomethyl)cyclohexyl]-3-[(1-bromonaphthalen-2-yl)methyl]-1,4,12-trioxo-2,5,11,13-tetraazahexadecane-10,14,16-tricarboxylic acid], the remaining activity at 0.01 µM [1] is reported as 187% and the remaining activity at 0.1 µM [2] is reported as 129%.
Compound `NC[C@H]1CC[C@H](C(=O)N[C@@H](Cc2ccc(O)cc2)C(=O)NCCCC[C@H](NC(=O)N[C@@H](CCC(=O)O)C(=O)O)C(=O)O)CC1` [Example 15-A, N^6—{N-[(1r,4S)-4-(aminomethyl)cyclohexane-1-carbonyl]-L-tyrosyl}-N^2-{[(1S)-1,3-dicarboxypropyl]carbamoyl}-L-lysine] has a remaining activity at 0.01 µM [1] of 133% and a remaining activity at 0.1 µM [2] of 111%.
For `NC[C@H]1CC[C@H](C(=O)N[C@@H](Cc2cccc(S(F)(F)(F)(F)F)c2)C(=O)NCCCC[C@H](NC(=O)N[C@@H](CCC(=O)O)C(=O)O)C(=O)O)CC1` [Example 16-A, N^6—{N-[(1r,4S)-4-(aminomethyl)cyclohexane-1-carbonyl]-3-(pentafluoro-lambda^6-sulfanyl)-L-phenylalanyl}-N^2-{[(1S)-1,3-dicarboxypropyl]carbamoyl}-L-lysine], the remaining activity at 0.01 µM [1] was 79% and the remaining activity at 0.1 µM [2] was 90%.
Work on `NC[C@H]1CC[C@H](C(=O)N[C@@H](Cc2ccc3ccccc3n2)C(=O)NCCCC[C@H](NC(=O)N[C@@H](CCC(=O)O)C(=O)O)C(=O)O)CC1` [Example 17-A, N^6—{N-[(1r,4S)-4-(aminomethyl)cyclohexane-1-carbonyl]-3-(quinolin-2-yl)-L-alanyl}-N^2-{[(1S)-1,3-dicarboxypropyl]carbamoyl}-L-lysine] yielded a remaining activity at 0.01 µM [1] of 84% and a remaining activity at 0.1 µM [2] of 56%.
For `O=C(O)CC[C@H](NC(=O)N[C@@H](CCCCNC(=O)[C@H](Cc1ccc2ccccc2n1)NC(=O)[C@H]1CC[C@H](CNC(=O)CN2CCN(CC(=O)O)CCN(CC(=O)O)CCN(CC(=O)O)CC2)CC1)C(=O)O)C(=O)O` [Example 17-B, N^6-{3-(quinolin-2-yl)-N-[(1r,4S)-4-({2-[4,7,10-tris(carboxymethyl)-1,4,7,10-tetraazacyclododecan-1-yl]acetamido}methyl)cyclohexane-1-carbonyl]-L-alanyl}-N^2-{[(1S)-1,3-dicarboxypropyl]carbamoyl}-L-lysine], the remaining activity at 0.01 µM [1] was 55%, the remaining activity at 0.1 µM [2] was 12% and the “competition against 3H-PSMA-617 on PSMA-expressing LNCaP cells (in words)” value (comparison between examples) was “best competition amongst all quinoline isomer examples”.
With `O=C(O)CC[C@H](NC(=O)N[C@@H](CCCCNC(=O)[C@H](Cc1ccc2ccccc2n1)NC(=O)C1CCC(CNC(=O)C[N+]23CC[N+]45CCN6CC[N+]7(CC2)CC(=O)[OH+][Th]347([O]C(=O)C6)[O]C(=O)C5)CC1)C(=O)O)C(=O)O` (stereo partly drawn) [Example 17-B-232Th] the “% remaining 3H-PSMA-617 @ 10 nM (mean)” value [1] was 46% and the “% remaining 3H-PSMA-617 @ 100 nM (mean)” value [2] was 10%.
Work on `NC[C@H]1CC[C@H](C(=O)N[C@@H](Cc2ccc(C3CCC3)cc2)C(=O)NCCCC[C@H](NC(=O)N[C@@H](CCC(=O)O)C(=O)O)C(=O)O)CC1` [Example 18-A, N^6—{N-[(1r,4S)-4-(aminomethyl)cyclohexane-1-carbonyl]-4-cyclobutyl-L-phenylalanyl}-N^2-{[(1S)-1,3-dicarboxypropyl]carbamoyl}-L-lysine] yielded a remaining activity at 0.01 µM [1] of 78% and a remaining activity at 0.1 µM [2] of 79%.
`COc1ccc(CC(NC(=O)[C@H]2CC[C@H](CN)CC2)C(=O)NCCCC[C@H](NC(=O)N[C@@H](CCC(=O)O)C(=O)O)C(=O)O)cc1OC` (stereo partly drawn) [Example 19-A, N^6—{N-[(1r,4S)-4-(aminomethyl)cyclohexane-1-carbonyl]-3-methoxy-O-methyl-L-tyrosyl}-N^2-{[(1S)-1,3-dicarboxypropyl]carbamoyl}-L-lysine] showed a remaining activity at 0.01 µM [1] of 84% and a remaining activity at 0.1 µM [2] of 79%.
`NC[C@H]1CC[C@H](C(=O)N[C@@H](CCCNC(=O)c2cnccn2)C(=O)NCCCC[C@H](NC(=O)N[C@@H](CCC(=O)O)C(=O)O)C(=O)O)CC1` [Example 20-A, N^6—{N^2-[(1r,4S)-4-(aminomethyl)cyclohexane-1-carbonyl]-N^5-(pyrazine-2-carbonyl)-L-ornithyl}-N^2-{[(1S)-1,3-dicarboxypropyl]carbamoyl}-L-lysine] was tested, and the remaining activity at 0.01 µM [1] was 88% and the remaining activity at 0.1 µM [2] was 82%.
For `NC[C@H]1CC[C@H](C(=O)N(Cc2cccc(=O)[nH]2)[C@@H](Cc2ccc3ccccc3c2)C(=O)NCCCC[C@H](NC(=O)N[C@@H](CCC(=O)O)C(=O)O)C(=O)O)CC1` [Example 21-A, (3S,10S,14S)-1-[(1r,4S)-4-(aminomethyl)cyclohexyl]-3-[(naphthalen-2-yl)methyl]-1,4,12-trioxo-2-[(6-oxo-1,6-dihydropyridin-2-yl)methyl]-2,5,11,13-tetraazahexadecane-10,14,16-tricarboxylic acid], the remaining activity at 0.01 µM [1] was 70% and the remaining activity at 0.1 µM [2] was 58%.
`NC[C@H]1CC[C@H](C(=O)N[C@@H](Cc2cnc3ccccc3c2)C(=O)NCCCC[C@H](NC(=O)N[C@@H](CCC(=O)O)C(=O)O)C(=O)O)CC1` [Example 22-A, N^6—{N-[(1r,4S)-4-(aminomethyl)cyclohexane-1-carbonyl]-3-(quinolin-3-yl)-L-alanyl}-N^2-{[(1S)-1,3-dicarboxypropyl]carbamoyl}-L-lysine] showed a remaining activity at 0.01 µM [1] of 113% and a remaining activity at 0.1 µM [2] of 40%.
`Nc1ccc(CC(=O)N[C@@H](Cc2ccc3ccccc3c2)C(=O)NCCCC[C@H](NC(=O)N[C@@H](CCC(=O)O)C(=O)O)C(=O)O)cc1` [Example 23-A, (4S,11S,15S)-1-(4-aminophenyl)-4-[(naphthalen-2-yl)methyl]-2,5,13-trioxo-3,6,12,14-tetraazaheptadecane-11,15,17-tricarboxylic acid] was tested, and the remaining activity at 0.01 µM [1] was 59% and the remaining activity at 0.1 µM [2] was 26%.
In the case of `O=C(O)CC[C@H](NC(=O)N[C@@H](CCCCNC(=O)[C@H](Cc1ccc2ccccc2c1)NC(=O)Cc1ccc(NC(=O)CN2CCN(CC(=O)O)CCN(CC(=O)O)CCN(CC(=O)O)CC2)cc1)C(=O)O)C(=O)O` [Example 23-B, (4S,11S,15S)-4-[(naphthalen-2-yl)methyl]-2,5,13-trioxo-1-(4-{2-[4,7,10-tris(carboxymethyl)-1,4,7,10-tetraazacyclododecan-1-yl]acetamido}phenyl)-3,6,12,14-tetraazaheptadecane-11,15,17-tricarboxylic acid], the remaining activity at 0.01 µM [1] is reported as 66% and the remaining activity at 0.1 µM [2] is reported as 18%.
`NCc1ccc(C(=O)N[C@@H](Cc2ccc3ccccc3c2)C(=O)NCCCC[C@H](NC(=O)N[C@@H](CCC(=O)O)C(=O)O)C(=O)O)cc1` [Example 24-A, (3S,10S,14S)-1-[4-(aminomethyl)phenyl]-3-[(naphthalen-2-yl)methyl]-1,4,12-trioxo-2,5,11,13-tetraazahexadecane-10,14,16-tricarboxylic acid] was tested, and the remaining activity at 0.01 µM [1] was 66% and the remaining activity at 0.1 µM [2] was 16%.
`O=C(O)CC[C@H](NC(=O)N[C@@H](CCCCNC(=O)[C@H](Cc1ccc2ccccc2c1)NC(=O)c1ccc(CNC(=O)CN2CCN(CC(=O)O)CCN(CC(=O)O)CCN(CC(=O)O)CC2)cc1)C(=O)O)C(=O)O` [Example 24-B, (3S,10S,14S)-3-[(naphthalen-2-yl)methyl]-1,4,12-trioxo-1-[4-({2-[4,7,10-tris(carboxymethyl)-1,4,7,10-tetraazacyclododecan-1-yl]acetamido}methyl)phenyl]-2,5,11,13-tetraazahexadecane-10,14,16-tricarboxylic acid] showed a remaining activity at 0.01 µM [1] of 59% and a remaining activity at 0.1 µM [2] of 6%.
